In ChEMBL document CHEMBL1124209, “Phosphonoformate and phosphonoacetate derivatives of 5-substituted 2'-deoxyuridines: synthesis and antiviral activity” (1988):
≈ marks a conversion by molar mass, not a printed value.

Experiments:
Assay type in all cases: functional
Human alphaherpesvirus 1 [1] = assay: Mean survival time in HSV-1 infected mice, after intraperitoneal administration of 5 mg/kg of compound
Human alphaherpesvirus 1 [2] = assay: Minimum inhibitory concentration causing 25% inhibition of cytopathic effect induced by herpes simplex virus (HSV)-1 (K979) in vero cells.
Human alphaherpesvirus 1 [3] = assay: Mean survival time in HSV-1 infected mice, after peroral administration of 10 mg/kg of compound; conditions: route oral
Human alphaherpesvirus 1 [4] = assay: Cumulative mortality in percent of HSV-1 infected mice, after peroral administration of 10 mg/kg of compound; conditions: route oral
Human alphaherpesvirus 1 [5] = assay: Mean survival time in HSV-1 infected mice, after intraperitoneal administration of 0.5 mg/kg of compound
Human alphaherpesvirus 1 [6] = assay: Cumulative mortality in percent of HSV-1 infected mice, after peroral administration of 5 mg/kg of compound; conditions: route oral
Human alphaherpesvirus 1 [7] = assay: Minimum inhibitory concentration causing 25% inhibition of cytopathic effect induced by Herpes simplex virus-1 (K979) in HEp-2 cells
Human alphaherpesvirus 1 [8] = assay: Cumulative mortality in percent of HSV-1 infected mice, after peroral administration of 1 mg/kg of compound; conditions: route oral
Human alphaherpesvirus 1 [9] = assay: Mean survival time in HSV-1 infected mice, after intraperitoneal administration of 1 mg/kg of compound
Human alphaherpesvirus 1 [10] = assay: Cumulative mortality in percent of HSV-1 infected mice, after intraperitoneal administration of 1 mg/kg of compound
Human alphaherpesvirus 1 [11] = assay: Minimum inhibitory concentration causing 25% inhibition cytopathic effect induced by Herpes simplex virus-1 (Brand) in HEp-2 cells
Human alphaherpesvirus 1 [12] = assay: Mean survival time in HSV-1 infected mice, after peroral administration of 1 mg/kg of compound; conditions: route oral
Human alphaherpesvirus 1 [13] = assay: Cumulative mortality in percent of HSV-1 infected mice, after intraperitoneal administration of 0.5 mg/kg of compound
Oryctolagus cuniculus = species on record: Oryctolagus cuniculus; assay: Minimum cytotoxic concentration causing toxic effects on uninfected cells in rabbit
Human alphaherpesvirus 1 [14] = assay: Mean survival time in HSV-1 infected mice, after peroral administration of 5 mg/kg of compound; conditions: route oral
Human alphaherpesvirus 1 [15] = assay: Cumulative mortality in percent of HSV-1 infected mice, after intraperitoneal administration of 5 mg/kg of compound
Human alphaherpesvirus 1 [16] = assay: Minimum inhibitory concentration causing 25% inhibition of cytopathic effect induced by Herpes simplex virus-1 (Brand) in vero cells
Human alphaherpesvirus 2 [17] = assay: Minimum inhibitory concentration causing 25% inhibition cytopathic effect induced by Herpes simplex virus(HSV) -2 (thymidine kinase deficient) in vero cells
Human alphaherpesvirus 1 [18] = assay: Minimum inhibitory concentration causing 25% inhibition of cytopathic effect induced by Herpes simplex virus(HSV) -1 (thymidine kinase deficient) in HEp-2 cells
Human alphaherpesvirus 1 [19] = assay: Minimum inhibitory concentration causing 25% inhibition of cytopathic effect induced by Herpes simplex virus(HSV) -1 (thymidine kinase deficient) in vero cells
Human alphaherpesvirus 2 [20] = assay: Minimum inhibitory concentration causing 25% inhibition of cytopathic effect induced by Herpes simplex virus(HSV) -2 (thymidine kinase deficient) in HEp-2 cells
Mus musculus [21] = assay: Mean duration of lesions in HSV-1 infected mice, after administration of 0.1 % of compound intracutaneously
Mus musculus [22] = assay: Cumulative lesions in HSV-1 infected mice, after administration of 0.1 % of compound intracutaneously
Human alphaherpesvirus 2 [23] = assay: Minimum inhibitory concentration causing 25% inhibition of cytopathic effect induced by Herpes simplex virus(HSV) -2 (thymidine kinase deficient) in vero cells

Row | Compound | MST (Human alphaherpesvirus 1 [1]) [days] | MIC (Human alphaherpesvirus 1 [2]) [µM] | MST (Human alphaherpesvirus 1 [3]) [days] | CMP (Human alphaherpesvirus 1 [4]) | MST (Human alphaherpesvirus 1 [5]) [days] | CMP (Human alphaherpesvirus 1 [6]) | MIC (Human alphaherpesvirus 1 [7]) [µM] | CMP (Human alphaherpesvirus 1 [8]) | MST (Human alphaherpesvirus 1 [9]) [days] | CMP (Human alphaherpesvirus 1 [10]) | MIC (Human alphaherpesvirus 1 [11]) [µM] | MST (Human alphaherpesvirus 1 [12]) [days] | CMP (Human alphaherpesvirus 1 [13]) | MTC (Oryctolagus cuniculus) | MST (Human alphaherpesvirus 1 [14]) [days] | CMP (Human alphaherpesvirus 1 [15]) | MIC (Human alphaherpesvirus 1 [16]) [µM] | MIC (Human alphaherpesvirus 1 [18]) [µM] | MIC (Human alphaherpesvirus 1 [19]) [µM] | MIC (Human alphaherpesvirus 2 [20]) [µM] | also measured
1 | CCOC(=O)CP(=O)(O)OC[C@H]1O[C@@H](n2cc(CCCl)c(=O)[nH]c2=O)C[C@@H]1O | 15.5 | > 227 | 15.9 | 42 | 12.2 | 58 | > 227 | 83 | 11.3 | 83 | > 227 | 11.9 | 75 | 749 µM | 13.6 | 42 | > 227 |  |  |  | 
2 | CCOC(=O)CP(=O)(OC)OC[C@H]1O[C@@H](n2ccc(=O)[nH]c2=O)C[C@@H]1O (stereo not given in full) |  | > 255 |  |  |  |  | > 255 |  |  |  | > 255 |  |  | >=842 uM |  |  | > 255 |  |  |  | 
3 | COP(=O)(CC(=O)OC[C@H]1O[C@@H](n2cc(C)c(=O)[nH]c2=O)C[C@@H]1O)OC |  | > 255 |  |  |  |  | > 255 |  |  |  | > 255 |  |  | >=842 uM |  |  | > 255 |  |  |  | 
4 | COP(=O)(CC(=O)OC[C@H]1O[C@@H](n2cc(CCCl)c(=O)[nH]c2=O)C[C@@H]1O)OC | 19.2 | > 227 | 12.2 | 75 | 13.3 | 83 | > 227 | 58 | 13 | 75 | 6.8 (≈ 3 µg/mL) | 13.5 | 67 | 749 µM | 11.2 | 8 | 6.8 (≈ 3 µg/mL) | > 227 | 227 (≈ 100 µg/mL) | > 227 | MIC (Human alphaherpesvirus 2 [17]): > 227 µM
5 | CCOC(=O)P(=O)(O)O[C@H]1C[C@H](n2cc(CCCl)c(=O)[nH]c2=O)O[C@@H]1CO | 18.9 | > 234 | 11.8 | 75 | 11.5 | 75 | > 234 | 83 | 15.6 | 42 | > 234 | 11.3 | 83 | >=773 uM | 11.9 | 8 | 234 (≈ 99.9 µg/mL) |  |  |  | MDL (Mus musculus [21]): 9.7 days; lesions (Mus musculus [22]): 90
6 | COC(=O)P(=O)(O)O[C@H]1C[C@H](n2cc(CCCl)c(=O)[nH]c2=O)O[C@@H]1CO |  | > 242 |  |  |  |  | > 242 |  |  |  | > 242 |  |  | >=800 uM |  |  | > 242 |  |  |  | 
7 | O=C(OCc1ccccc1)P(=O)(O)OC[C@H]1O[C@@H](n2cc(CCCl)c(=O)[nH]c2=O)C[C@@H]1O | 19.3 | > 205 | 16.8 | 33 | 13.8 | 50 | > 205 | 67 | 16.3 | 33 | 20.5 (≈ 10 µg/mL) | 12.7 | 67 | 675 µM | 14.3 | 8 | 20.5 (≈ 10 µg/mL) | > 205 | 20.5 (≈ 10 µg/mL) | > 205 | MDL (Mus musculus [21]): 8.1 days; MIC (Human alphaherpesvirus 2 [23]): 205 µM (≈ 100 µg/mL); lesions (Mus musculus [22]): 100
8 | CCOC(=O)P(=O)(O)OC[C@H]1O[C@@H](n2cc(CCCl)c(=O)[nH]c2=O)C[C@@H]1O | 20 | > 234 | 15.3 | 50 | 13.8 | 75 | 234 (≈ 99.9 µg/mL) | 92 | 16.5 | 33 | 23.4 (≈ 9.99 µg/mL) | 10.1 | 58 | >=773 uM | 11.9 | 0 | 23.4 (≈ 9.99 µg/mL) | > 234 | 70.3 (≈ 30 µg/mL) | > 234 | MDL (Mus musculus [21]): 6.7 days; MIC (Human alphaherpesvirus 2 [23]): 234 µM (≈ 99.9 µg/mL); lesions (Mus musculus [22]): 80
9 | O=C(O)CP(=O)(O)OC[C@H]1O[C@@H](n2cc(CCCl)c(=O)[nH]c2=O)C[C@@H]1O | 17.3 | 232 (≈ 95.8 µg/mL) | 15.3 | 50 | 14.2 | 92 | 69.6 (≈ 28.7 µg/mL) | 100 | 14.1 | 58 | 2.3 (≈ 0.949 µg/mL) | 8.6 | 50 | 766 µM | 11.2 | 25 | 2.3 (≈ 0.949 µg/mL) | 23.2 (≈ 9.58 µg/mL) | 23.2 (≈ 9.58 µg/mL) | 232 (≈ 95.8 µg/mL) | MDL (Mus musculus [21]): 5.3 days; lesions (Mus musculus [22]): 60; MIC (Human alphaherpesvirus 2 [17]): > 232 µM
10 | CC(C)(C)OC(=O)CP(=O)(O)OC[C@H]1O[C@@H](n2cc(CCCl)c(=O)[nH]c2=O)C[C@@H]1O | 15.4 | > 213 | 13.3 | 58 | 12.9 | 83 | > 213 | 83 | 12.8 | 67 | > 213 | 11.5 | 67 | >=704 uM | 11.3 | 50 | > 213 |  |  |  | 
11 | COC(=O)P(=O)(O)OC[C@H]1O[C@@H](n2cc(CCCl)c(=O)[nH]c2=O)C[C@@H]1O | 16.3 | > 242 | 13.7 | 75 | 11.8 | 67 | 242 (≈ 99.9 µg/mL) | 75 | 14.1 | 58 | 24.2 (≈ 9.99 µg/mL) | 12.6 | 75 | >=800 uM | 12.7 | 33 | 24.2 (≈ 9.99 µg/mL) | > 242 | 242 (≈ 99.9 µg/mL) | > 242 | MIC (Human alphaherpesvirus 2 [23]): > 242 µM
12 | CCOC(=O)CP(=O)(O)O[C@H]1C[C@H](n2cc(CCCl)c(=O)[nH]c2=O)O[C@@H]1CO |  | > 227 |  |  |  |  | > 227 |  |  |  | > 227 |  |  | 749 µM |  |  | > 227 |  |  |  | MDL (Mus musculus [21]): 9.4 days; lesions (Mus musculus [22]): 80
13 | COP(=O)(CC(=O)O[C@H]1C[C@H](n2cc(CCCl)c(=O)[nH]c2=O)O[C@@H]1CO)OC |  | 22.7 (≈ 10 µg/mL) |  |  |  |  | 6.8 (≈ 3 µg/mL) |  |  |  | 68.1 (≈ 30 µg/mL) |  |  | 227 µM |  |  | 0.7 (≈ 0.309 µg/mL) | > 227 | 227 (≈ 100 µg/mL) | > 227 | MIC (Human alphaherpesvirus 2 [23]): 227 µM (≈ 100 µg/mL)
14 | CCOC(=O)P(=O)(Nc1ccccc1)OC[C@H]1O[C@@H](n2cc(CCCl)c(=O)[nH]c2=O)C[C@@H]1O (stereo not given in full) | 18 | > 199 | 17.8 | 25 | 13.1 | 50 | 59.8 (≈ 30 µg/mL) | 100 | 13.9 | 67 | 2 (≈ 1 µg/mL) | 11.4 | 75 | 658 µM | 15.4 | 25 | 2 (≈ 1 µg/mL) | > 199 | 59.8 (≈ 30 µg/mL) | > 199 | MIC (Human alphaherpesvirus 2 [23]): 199 µM (≈ 99.9 µg/mL)
15 | O=C(CP(=O)(O)O)O[C@H]1C[C@H](n2cc(CCCl)c(=O)[nH]c2=O)O[C@@H]1CO |  | 242 (≈ 99.9 µg/mL) |  |  |  |  | 72.7 (≈ 30 µg/mL) |  |  |  | 72.7 (≈ 30 µg/mL) |  |  | 800 µM |  |  | 24.2 (≈ 9.99 µg/mL) | > 242 | 242 (≈ 99.9 µg/mL) | > 242 | MIC (Human alphaherpesvirus 2 [17]): > 242 µM
16 | CCOC(=O)CP(=O)(OC)OC[C@H]1O[C@@H](n2cc(C)c(=O)[nH]c2=O)C[C@@H]1O (stereo not given in full) |  | > 246 |  |  |  |  | > 246 |  |  |  | > 246 |  |  | >=812 uM |  |  | > 246 |  |  |  | 
17 | CCOC(=O)P(=O)(OC)OC[C@H]1O[C@@H](n2cc(C)c(=O)[nH]c2=O)C[C@@H]1O (stereo not given in full) |  | > 255 |  |  |  |  | > 255 |  |  |  | > 255 |  |  | >=842 uM |  |  | > 255 |  |  |  | 
18 | CCOC(=O)P(=O)(OC)OC[C@H]1O[C@@H](n2ccc(=O)[nH]c2=O)C[C@@H]1O (stereo not given in full) |  | > 264 |  |  |  |  | > 264 |  |  |  | > 264 |  |  | >=872 uM |  |  | > 264 |  |  |  | 
